For 13 molecules, IC50 results are on record in patent US10358455B2, “Arene ruthenium complex, preparation method and utilization thereof” (Guangdong Pharmaceutical University, priority 2017, dated 2019).

Read-outs that look alike come from different tables or passages of the source. Bounds are passed on as bounds.

Test [1] has as its system rat glioma C6 cancer cells. Kind of test: MTT assay on rat glioma C6 cells. The settings on record: 5-80 μM, read-out: The inhibitory effect IC50 on rat glioma C6 cancer cells. It is filed as cell-based. As to the method: The Antiproliferative Activities of Arene Ruthenium (II) Complexes Against Rat Glioma C6 Cancer Cells.
(§1) The antiproliferative effects of arene ruthenium (II) complex against rat glioma C6 cells were evaluated by MTT assay. Discarding the medium of the rat glioma C6 cells in exponential growth phase, washing the cells twice with phosphate-buffered saline (PBS), dissociating into single cells by digesting with 1 mL trypsin, counting the cells. Adding fresh medium to dilute cell population to 1.5×10^4 cells/mL, inoculating into 96-well tissue culture plates (3×10^3 cells per well) with 200 μL/well in 6 wells of each group, repeating twice, and then culturing at 37° C. in 5% CO2 saturated humidity incubator for 16 h. After adherent cells are apparent, removing the supernatant carefully and adding DMEM media. Meanwhile, the cells were incubated with different concentrations of arene ruthenium (II) complexes with a final concentration of 5, 10, 20, 40 and 80 μM respectively, and maintain the total volume at 200 μL/well. Thereafter, the cells were cultured for 72 h. At the end of incubation, 20 μL/well of MTT solution (5 mg/mL) was added and incubated for 4 h. Removing the supernatant carefully and replaced with 150 μL/well of DMSO and oscillated for 10 min to ensure complete dissolution of the formazan crystallization. The absorbance values were measured at 490 nm using a microplate reader. Cell viability was calculated according to the following formula: Cell viability (%)=A490 nm (cells in experimental group)/A490 nm (cells in control group)×100%
According to the values of cell viability, calculating the inhibitory activities (IC50) of the target complex against rat glioma C6 cells.

Test [2] concerns nasopharyngeal carcinoma CNE-1 cancer cells. Kind of test: MTT assay on nasopharyngeal carcinoma CNE-1 cells. It is filed as cell-based. The settings on record: 72 h, 5-80 μM, read-out: The inhibitory effect IC50 on CNE-1 cancer cells. As to the method:
The Antiproliferative Activities of Arene Ruthenium (II) Complexes Against Nasopharyngeal Carcinoma CNE-1 Cancer Cells.
as §1, with “complex against nasopharyngeal carcinoma CNE-1 cells were” for “complex against rat glioma C6 cells were”, “of the nasopharyngeal carcinoma CNE-1 cells in” for “of the rat glioma C6 cells in”, “80 μM respectively and maintain” for “80 μM respectively, and maintain”, “and incubated at 37° C. for 4” for “and incubated for 4”
According to the values of cell viability, calculating the inhibitory activities (IC50) of the target complex against CNE-1 cancer cells.

Test [3] concerns MDA-MB-231 breast cancer cells. Kind of test: MTT assay on MDA-MB-231 breast cancer cells. Type of test: cell-based. The conditions noted are these: 72 h, 5-80 μM, read-out: The inhibitory effect IC50 on MDA-MB-231 breast cancer cells. The procedure: The Anti-Invasion Activities of Arene Ruthenium (II) Complexes Against MDA-MB-231 Breast Cancer Cells.
The anti-invasion activities of arene ruthenium (II) complexes against MDA-MB-231 breast cancer cells was evaluated by MTT assay. Discarding the medium of the MDA-MB-231 breast cancer cells in exponential growth phase, washing the cells twice with phosphate-buffered saline (PBS), dissociating into single cells by digesting with 1 mL trypsin, counting the cells. Adding fresh medium to dilute cell population to 1.5×10^4 cells/mL, inoculating into 96-well tissue culture plates (3×10^3 cells per well) with 200 μL/well in 6 wells of each group, repeating twice, and then culturing at 37° C. in 5% CO2 saturated humidity incubator for 16 h. After adherent cells are apparent, removing the supernatant carefully and adding DMEM media. Meanwhile, the cells were incubated with different concentrations of arene ruthenium (II) complexes with a final concentration of 5, 10, 20, 40 and 80 μM respectively and maintain the total volume at 200 μL/well. Thereafter, the cells were cultured for 72 h. At the end of incubation, 20 μL/well of MTT solution (5 mg/mL) was added and incubated for 4 h. Removing the supernatant carefully and replaced with 150 μL/well of DMSO and oscillated for 10 mins to ensure complete dissolution of the formazan crystallization. The absorbance values were measured at 490 nm using a microplate reader. Cell viability was calculated according to the following formula: Cell viability (%)=A490 nm (cells in experimental group)/A490 nm (cells in control group)×100%
According to the values of cell viability, calculating the inhibitory activities (IC50) of the target complex against MDA-MB-231 cells.

The test system of test [4] is human epidermal HaCaT cells. Kind of test: MTT assay on human epidermal HaCaT cells. Type of test: cell-based. The conditions noted are these: 72 h, 5-80 μM, normal epidermal cells, read-out: The inhibitory effect IC50 on human epidermal HaCaT cells. As to the method:
The Antiproliferative Activities of Arene Ruthenium (II) Complexes Against Human Epidermal HaCaT Cells.
The antiproliferative effects of arene ruthenium (II) complex against human epidermal HaCaT cells were evaluated by MTT assay. Discarding the medium of human epidermal HaCaT cells in exponential growth phase and washing the cells twice with phosphate-buffered saline (PBS), dissociating into single cells by digesting with 1 mL trypsin. Adding fresh medium to dilute cell population to 1.5×10^4 cells/mL, inoculating into 96-well tissue culture plates (3×10^3 cells per well) with 200 μL/well in 6 wells of each group, repeating twice, and then culturing at 37° C. in 5% CO2 saturated humidity incubator for 16 h. After adherent cells are apparent, carefully removing the supernatant and adding DMEM media. Meanwhile, the cells were incubated with different concentrations of arene ruthenium (II) complexes with a final concentration of 5, 10, 20, 40 and 80 μM respectively and maintain the total volume at 200 µL/well. Thereafter, the cells were cultured for 72 h. At the end of incubation, 20 μL/well of MTT solution (5 mg/mL) was added and incubated at 37° C. for 4 h. Removing the supernatant carefully and replaced with 150 μL/well of DMSO and oscillated for 10 min to ensure complete dissolution of the formazan crystallization. The absorbance values were measured at 490 nm using a microplate reader. Cell viability was calculated according to the following formula: Cell viability (%)=A490 nm (cells in experimental group)/A490 nm (cells in control group)×100%
According to the values of cell viability, calculating the inhibitory activities (IC50) of the target complex against human epidermal HaCaT cells.

In test [5] the test system is human esophageal carcinoma EC-1 cells. Kind of test: MTT assay on human esophageal carcinoma EC-1 cells. The settings on record: 72 h, 5-80 μM, read-out: The inhibitory effect IC50 on human esophageal carcinoma EC-1 cells. It is filed as cell-based. The procedure: The Antiproliferative Activities of Arene Ruthenium (II) Complexes Against Human Esophageal Carcinoma EC-1 Cells.
as §1, with “complex against human esophageal carcinoma EC-1 cells were” for “complex against rat glioma C6 cells were”, “medium of human esophageal carcinoma EC-1 cells in” for “medium of the rat glioma C6 cells in”, “with 200 µL/well in 6” for “with 200 μL/well in 6”, “80 μM respectively and maintain” for “80 μM respectively, and maintain”, “and incubated at 37° C. for 4” for “and incubated for 4”
According to the values of cell viability, calculating the inhibitory activities (IC50) of the target complex against human esophageal carcinoma EC-1 cells.

Test [6] concerns A549 lung adenocarcinoma cancer cells. Kind of test: MTT assay on A549 lung adenocarcinoma cells. Type of test: cell-based. The settings on record: 72 h, 5-80 μM, read-out: The inhibitory effect IC50 on A549 lung adenocarcinoma cancer cells. As to the method:
The Antiproliferative Activities of Arene Ruthenium (II) Complexes Against A549 Lung Adenocarcinoma Cancer Cells
as §1, with “complex against A549 lung adenocarcinoma cells were” for “complex against rat glioma C6 cells were”, “MTT assay. Discarded the medium” for “MTT assay. Discarding the medium”, “of the A549 lung adenocarcinoma cells in” for “of the rat glioma C6 cells in”, “80 μM respectively and maintain” for “80 μM respectively, and maintain”, “and incubated at 37° C. for 4” for “and incubated for 4”
According to the values of cell viability, calculating the inhibitory activities (IC50) of the target complex against A549 lung adenocarcinoma cancer cells.

The test system of a further test is lung cancer cells. The settings on record: read-out: anti-proliferative activity IC50, lung cancer cells; cited from earlier work.
In test [7] the test system is nasopharyngeal carcinoma cells. The conditions noted are these: read-out: anti-proliferative activity IC50, nasopharyngeal carcinoma cells; cited from earlier work.
Another test concerns breast cancer cells. The settings on record: read-out: anti-proliferative activity IC50, breast cancer cells; cited from earlier work.
A further test relates to ovarian cancer cells. The conditions noted are these: read-out: anti-proliferative activity IC50, ovarian cancer cells; cited from earlier work.

Turning to “[(η^6-p-cymene)Ru(p-N(CH3)2PIP)Cl]Cl [RAP093]”, the 50% inhibitory concentration (IC50) in test [1] (72 h) was 5.6 ± 0.11 µM; in test [2] it was 11.9 ± 0.73 µM; in [3], 6.4 ± 0.16 µM; in [4] it was greater than 100 µM.

With “[(η^6-p-cymene)Ru(p-CH3PIP)Cl]Cl [RAP273]”, the half-maximal inhibitory concentration (IC50) amounted to 18.4 ± 11.7 µM in test [5] and 9.6 ± 0.3 µM in test [3].

As to “[(η^6-p-cymene)Ru(m-ClPIP)Cl]Cl [RAP052]”, the IC50 in test [6] was 36.6 ± 0.67 µM.

Turning to “[(η^6-p-cymene)Ru(p-CF3PIP)Cl]Cl [RAP083]”, the half-maximal inhibitory concentration (IC50) in [1] (72 h) is 4.5 ± 0.07 µM; in test [5], 6.9 ± 0.2 µM; in [3], 6.27 ± 0.29 µM; in test [4] it was greater than 100 µM.

For the molecule “[(η^6-p-cymene)Ru(o-OCH3PIP)Cl]Cl [RAP201]”, the half-maximal inhibitory concentration (IC50) in test [2] was 17.4 ± 0.47 µM.

For [(η^6-p-cymene)Ru(C6H5-BzTSC)Cl]Cl, the IC50 was 31 µM in the test with lung cancer cells, 20 µM in test [7], 10 µM in the test on breast cancer cells and 34 µM in the test with ovarian cancer cells.

As for “[(η^6-p-cymene)Ru(m-BrPIP)Cl]Cl [RAP062]”, the IC50 in test [1] (72 h) is 5.4 ± 0.17 µM; in [2], 15.7 ± 0.11 µM; in test [6], 6.59 ± 2.26 µM; in test [3], 9.2 ± 0.3 µM; in [4], 37.3 ± 1.99 µM.

Regarding “[(η^6-p-cymene)Ru(p-NO2PIP)Cl]Cl [RAP143]”, the IC50 turned out to be 2.4 ± 0.05 µM in test [1] (72 h) and 11.8 ± 0.9 µM in test [6].

On to [(η^6-p-cymene)Ru(p-IPIP)Cl]Cl [RAP073], for which the IC50 was 3.3 ± 0.07 µM in [2] and 3.2 ± 0.1 µM in test [3].

Consider `N.N.[Cl][Pt][Cl]` [cis-platin, reference compound], for which the IC50 in test [2] amounted to 19.1 ± 0.5 µM; in test [6], 93.1 ± 0.9 µM; in test [5] it was 9.4 ± 0.21 µM; in test [3] it was 17.8 ± 0.9 µM; in test [4], 17.1 ± 0.8 µM.

Turning to `Cn1nnc2c(C(N)=O)ncn2c1=O` [Temozolomide, reference compound], the IC50 in test [1] (Rattus norvegicus, C6, 72 h) is 259 ± 15.5 µM.

For the molecule “[(η^6-p-cymene)Ru(o-BrPIP)Cl]Cl [RAP061]”, the IC50 in test [4] is greater than 100 µM.

As for [(η^6-p-cymene)Ru(p-FPIP)Cl]Cl [RAP04], the IC50 was 1.2 ± 0.3 µM in test [1] (72 h) and 18.2 ± 0.5 µM in test [5].
